Measurements reported in patent US20250074911A1, “MACROCYCLIC BTK INHIBITORS” (Crossfire Oncology Holding B.V., priority 2021, published 2025).
Several values for one entry are separate records, joined by “and”; a condition that tells them apart may be missing. Identical values can stand only once.

What was measured:
REC-1 T474I cell lines = assay: Cell proliferation assay REC-1 BTK T474I knock-in cells (ATPlite, 72 hours); type: cell-based; details: Homo sapiens, Rec1; 72 hours; read-out: IC50 REC-1 T474I
Summary of the method: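 REC-1 cells carrying CRISPR knock-in mutant BTK, single-cell cloned and sequence-confirmed, were exposed to compound for 72 h and read by ATPlite luminescence. Percentage growth was calculated against the signal at the start of incubation and against untreated 0.3% DMSO wells as maximum growth.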

[1] = system: wt-REC-1 mantle cell lymphoma cells; assay: Cell proliferation assay wt-REC-1 (ATPlite, 72 hours); type: cell-based; details: 72 h; read-out: IC50 wt-REC-1
Summary of the method: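 Luminescent viability read over 72 h, start-of-incubation signal recorded separately to separate growth from cell death. Percentage growth referenced to compound-free 0.3% DMSO wells; IC50 from 4-parameter logistic fit.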

BTK T474S = BTK T474S (Homo sapiens (Human), UniProt Q06187, T474S); assay: Binding kinetics measurements (Surface Plasmon Resonance) on BTK T474S; details: for residence time: SPR binding kinetics, BTK T474S, read-out: Tau (h) BTK T474S (Act), target residence time (converted); for Kd: binding affinity by Surface Plasmon Resonance (SPR); for target residence time on BTK T474 mutants (T474S): result in words
Experimental: (§1) Binding kinetics measurements on wt-BTK, BTK […], BTK […], BTK […] and BTK […] (Surface Plasmon Resonance) Streptavidin-coated chips (Cat. No. BR100531), disposables and maintenance kits for Biacore were purchased from Cytiva (Eindhoven, The Netherlands). […] Remaining streptavidin was blocked with biocytin. Immobilization was performed at 4° C. Subsequent assay steps were conducted at 22° C. After changing buffer to Biacore buffer with 1% (v/v) dimethylsulfoxide (DMSO), a pre-run was performed for a period of at least 30 min at a flow rate of 30 μl/min to obtain a stable surface. The kinetic constants of the compounds were determined with single cycle kinetics with five consecutive injections with an increasing compound concentration with ranges of 3.16-316 nM. […] To circumvent problems of mass transport limitation, a flow rate of 30 μl/min was used. A blank run with the same conditions was performed before the compound was injected. The SPR sensorgrams were analyzed with Biacore Evaluation Software by using a method of double referencing. First the reference channel was subtracted from the channel containing immobilized protein. Subsequently, the reference curve obtained with buffer injections was subtracted. […] Compounds that bound according to an induced fit model were fitted with a two-state reaction model. The kinetic constants (ka, […], KD) of duplicates were geometrically averaged. […] Target residence for an induced fit model was calculated as described (Tummino and Copeland, 2008).

BTK T474I = BTK T474I (Homo sapiens (Human), UniProt Q06187, T474I); assay: Binding kinetics measurements (Surface Plasmon Resonance) on BTK T474I; details: for Kd: binding affinity by Surface Plasmon Resonance (SPR); for Tau (h) BTK T474I (Act): target residence time, SPR; for target residence time on BTK T474 mutants (T474I): result in words
Summary of the method: (§2)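 SPR on biotinylated wild-type or mutant human BTK captured on streptavidin chips (immobilized at 4° C, assay at 22° C), buffer with 1% DMSO, 30 μl/min. Single-cycle kinetics, five injections of 3.16-316 nM compound; double-referenced sensorgrams fitted (two-state model for induced fit), duplicate ka, kd, KD geometrically averaged.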

BTK T316A = BTK T316A (Homo sapiens (Human), UniProt Q06187, T316A); assay: Binding kinetics measurements (Surface Plasmon Resonance) on BTK T316A; details: for Kd: binding affinity by Surface Plasmon Resonance (SPR); for Tau (h) BTK T316A (Act): target residence time, SPR; for target residence time on BTK T316 mutants: result in words
Experimental: as §1

BTK C481S = BTK C481S (Homo sapiens (Human), UniProt Q06187, C481S); assay: Binding kinetics measurements (Surface Plasmon Resonance) on BTK C481S; details: for Kd: binding affinity by Surface Plasmon Resonance (SPR); for Tau (h) BTK C418S (Act): target residence time for BTK C481S, SPR; for target residence time on BTK C481 mutants: result in words
Experimental: as §1

[2] = system: wt-TMD8 diffuse large B-cell lymphoma cells; assay: Cell proliferation assay wt-TMD8 (ATPlite, 120 hours); type: cell-based; details: B-cell; wt-TMD8 cells, 120 hours, ATPlite; read-out: IC50 wt-TMD8
Summary of the method: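 wt-TMD8 DLBCL cells, 1600 per well in RPMI-1640 with 10% FBS, rested ≥5 h then exposed to compound for 120 h at 37° C, 5% CO2. Viability read by ATPlite luminescence; percentage growth calculated relative to start-of-incubation signal and untreated 0.3% DMSO maximum growth.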

wt-BTK = wt-BTK (Homo sapiens (Human), UniProt Q06187); assay: Binding kinetics measurements (Surface Plasmon Resonance) on wt-BTK; details: for Kd: binding affinity by Surface Plasmon Resonance (SPR); for Tau (h) wt-BTK (Act): target residence time, SPR; for target residence time on wild-type-BTK: result in words
Summary of the method: as §2

[3] = target: full-length BTK C481S enzyme (Homo sapiens (Human), UniProt Q06187, C481S); assay: Biochemical kinase assay BTK C481S (IMAP)
Summary of the method: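 Full-length BTK C481S (1.2 nM) was pre-incubated with compound for 1 h at room temperature in the dark, then reacted with fluorescein-labelled MBP-derived peptide (50 nM) and ATP (7 μM) for 2 h. Reactions were quenched with IMAP binding solution, and IC50 values were derived from fluorescence polarization.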

[4] = target: full-length wt-BTK enzyme (Homo sapiens (Human), UniProt Q06187); assay: Biochemical kinase assay wt-BTK (IMAP)
Summary of the method: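 IMAP fluorescence polarization assay: 1.2 nM enzyme pre-incubated 1 h with compound at room temperature, then 50 nM fluorescein-labeled MBP-derived peptide and 4 μM ATP added. Reaction ran 2 h at room temperature in the dark before quenching with IMAP binding solution.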

Chain of BTK T474I (Q06187 whole entry T474I): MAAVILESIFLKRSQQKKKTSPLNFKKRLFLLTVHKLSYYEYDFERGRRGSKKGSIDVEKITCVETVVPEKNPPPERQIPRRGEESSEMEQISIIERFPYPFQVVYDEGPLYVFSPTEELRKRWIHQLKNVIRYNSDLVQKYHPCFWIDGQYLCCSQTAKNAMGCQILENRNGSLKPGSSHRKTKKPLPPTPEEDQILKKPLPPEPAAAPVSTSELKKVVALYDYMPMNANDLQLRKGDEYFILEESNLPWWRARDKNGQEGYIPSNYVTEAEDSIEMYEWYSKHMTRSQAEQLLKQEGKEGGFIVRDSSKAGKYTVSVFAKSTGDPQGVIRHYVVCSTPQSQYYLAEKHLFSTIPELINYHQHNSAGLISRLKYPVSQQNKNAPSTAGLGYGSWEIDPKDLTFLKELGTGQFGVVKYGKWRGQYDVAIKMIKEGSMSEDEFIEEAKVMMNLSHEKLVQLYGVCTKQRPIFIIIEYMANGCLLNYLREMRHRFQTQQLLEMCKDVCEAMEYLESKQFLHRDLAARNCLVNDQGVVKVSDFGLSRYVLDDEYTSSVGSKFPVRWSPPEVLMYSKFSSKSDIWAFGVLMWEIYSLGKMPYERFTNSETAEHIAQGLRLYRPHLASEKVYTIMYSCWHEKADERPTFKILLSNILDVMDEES
Chain of BTK T474S (Q06187 whole entry T474S): as the sequence (Q06187 whole entry T474I) above, with I474S counted along it
Chain of full-length BTK C481S enzyme (Q06187 whole entry C481S): as the sequence (Q06187 whole entry T474I) above, with I474T, C481S counted along it
Chain of BTK C481S (Q06187 whole entry C481S): as the sequence (Q06187 whole entry T474I) above, with I474T, C481S counted along it
Chain of wt-BTK (Q06187 whole entry): as the sequence (Q06187 whole entry T474I) above, with I474T counted along it
Chain of full-length wt-BTK enzyme (Q06187 whole entry): as the sequence (Q06187 whole entry T474I) above, with I474T counted along it
Chain of BTK T316A (Q06187 whole entry T316A): as the sequence (Q06187 whole entry T474I) above, with T316A, I474T counted along it

| SMILES | IC50 (REC-1 T474I cell lines) [nM] | IC50 [1] [nM] | residence time (BTK T474S) [h] | Kd (BTK T474S) [nM] | Kd (BTK T474I) | Kd (BTK T316A) [nM] | Tau (h) BTK T316A (Act) (BTK T316A) [h] | Kd (BTK C481S) [nM] | Tau (h) BTK C418S (Act) (BTK C481S) [h] | IC50 [2] [nM] | Kd (wt-BTK) [nM] | Tau (h) wt-BTK (Act) (wt-BTK) [h] | IC50 [3] [nM] | IC50 [4] [nM] | Tau (h) BTK T474I (Act) (BTK T474I) [h] | target residence time on BTK T474 mutants (T474S) (BTK T474S) | target residence time on BTK T474 mutants (T474I) (BTK T474I) | target residence time on BTK T316 mutants (BTK T316A) | target residence time on BTK C481 mutants (BTK C481S) | target residence time on wild-type-BTK (wt-BTK) |
| --- | --- | --- | --- | --- | --- | --- | --- | --- | --- | --- | --- | --- | --- | --- | --- | --- | --- | --- | --- | --- |
| CC1NC/C=C/c2cnc(N)c3c(-c4ccc(C(=O)Nc5cc(C(F)(F)F)ccn5)cc4)nn(c23)[C@@H]2CCC[C@H](C2)NC1=O (single isomer, unassigned) [Example 146] | 100 to 500 | < 100 | 2.69 | < 3 | 10 to 50 nM and < 5 nM | < 5 | 2.12 | < 5 | 5.76 | < 100 | < 5 | 3.88 | – | – | – | – | – | – | – | – |
| Nc1ncc2c3c1c(-c1ccc(C(=O)Nc4cc(C(F)(F)F)ccn4)cc1)nn3[C@@H]1CCC[C@H](C1)NC(=O)COCC/C=C/2 [Example 6] | 100 to 500 | < 100 | 4.41 | < 3 | < 2 nM | < 5 | 2.28 | < 5 | 2.91 | < 100 | < 5 | 6.80 | < 5 | < 5 | – | – | – | – | – | – |
| Nc1ncc2c3c1c(-c1ccc(C(=O)Nc4cc(C(F)(F)F)ccn4)cc1F)nn3[C@@H]1CCC[C@H](C1)NC(=O)CCC/C=C/2 [Example 7] | 500 to 10000 | < 100 | 4.98 | < 3 | < 2 nM | < 5 | 2.03 | < 5 | 4.50 | < 100 | < 5 | 2.57 | < 5 | < 5 | – | – | – | – | – | – |
| Nc1ncc2c3c1c(-c1ccc(C(=O)Nc4cc(C(F)(F)F)ccn4)cc1F)nn3[C@@H]1CCC[C@H](C1)NC(=O)CNC/C=C/2 [Example 8] | 500 to 10000 | 100 to 1000 | 3.17 | < 3 | 10 to 50 nM and < 5 nM | < 5 | 1.30 | < 5 | 3.30 | < 100 | < 5 | 2.25 | < 5 | < 5 | – | – | – | – | – | – |
| C[C@@H]1CCn2nc(-c3ccc(C(=O)Nc4cc(C(F)(F)F)ccn4)cc3)c3c(N)ncc(c32)/C=C/CCCCC(=O)N1 [Example 54] | 100 to 500 | < 100 | 4.37 | < 3 | < 2 nM | < 5 | – | < 5 | – | < 100 | < 5 | – | – | – | – | – | – | – | – | – |
| C[C@@H]1CCn2nc(-c3ccc(C(=O)Nc4cc(C(F)(F)F)ccn4)cc3)c3c(N)ncc(c32)/C=C/CSCC(=O)N1 [Example 61] | – | < 100 | 2.48 | < 3 | < 2 nM | < 5 | 1.85 | < 5 | 7.19 | < 100 | < 5 | 4.95 | < 5 | < 5 | – | – | – | – | – | – |
| Nc1ncc2c3c1c(-c1ccc(C(=O)Nc4cc(C(F)(F)F)ccn4)cc1)nn3[C@@H]1CCC[C@H](C1)NC(=O)CCCC/C=C\C2 [Example 98b] | – | 100 to 1000 | 4.46 | < 3 | 10 to 50 nM and < 5 nM | < 5 | 3.58 | < 5 | 5.98 | – | < 5 | 4.35 | < 5 | < 5 | 1.14 | – | – | – | – | – |
| Nc1ncc2c3c1c(-c1ccc(C(=O)Nc4cc(C(F)(F)F)ccn4)cc1)nn3[C@@H]1CCC[C@H](C1)C(=O)NCCCCCCC2 [Example 115] | 100 to 500 | 100 to 1000 | 3.89 | < 3 | 10 to 50 nM and < 5 nM | < 5 | 2.96 | < 5 | 6.25 | – | < 5 | 5.09 | < 5 | < 5 | – | – | – | – | – | – |
| Nc1ncc2n3c(nc(-c4ccc(C(=O)Nc5cc(C(F)(F)F)ccn5)cc4)c13)[C@@H]1CCC[C@H](C1)NC(=O)CCCC/C=C/2 [Example 130] | – | < 100 | 1.64 | < 3 | < 2 nM | < 5 | 2.22 | < 5 | 3.83 | < 100 | < 5 | 2.86 | < 5 | < 5 | – | – | – | – | – | – |
| Nc1ncc2n3c(nc(-c4ccc(C(=O)Nc5cc(C(F)(F)F)ccn5)cc4)c13)[C@@H]1CCC[C@H](C1)NC(=O)CCC/C=C/2 [Example 132] | 500 to 10000 | 100 to 1000 | 3.04 | < 3 | < 2 nM | < 5 | 1.58 | < 5 | 3.96 | – | < 5 | 2.75 | < 5 | < 5 | – | – | – | – | – | – |
| Nc1ncc2n3c(nc(-c4ccc(C(=O)Nc5cc(C(F)(F)F)ccn5)cc4)c13)[C@@H]1CCC[C@H](C1)NC(=O)CCC/C=C\C2 [Example 133b] | – | – | – | < 3 | < 2 nM | < 5 | – | < 5 | – | – | < 5 | – | < 5 | < 5 | – | – | – | – | – | – |
| C[C@H]1CN(C2COC2)CCN1c1ccc(Nc2cc(-c3ccnc(N4CCn5c(cc6c5CC(C)(C)C6)C4=O)c3CO)cn(C)c2=O)nc1 [fenebrutinib, reference compound] | – | – | 0.93 | – | – | – | 0.03 | – | 0.08 | – | – | 0.29 | – | – | 0.19 | short target residence times | short target residence times | short target residence times | short target residence times | short target residence times |
| NC(=O)[C@H]1CCN(c2ncnc(N)c2F)C[C@@H]1N1CCC[C@@H](Nc2cc(Cl)cc(C(F)(F)F)c2)C1=O [vecabrutinib, reference compound] | – | – | 0.07 | – | – | – | 0.05 | – | 0.12 | – | – | 0.18 | – | – | 0.01 | short target residence times | short target residence times | short target residence times | short target residence times | short target residence times |
